Data on one compound can be found in patent US6156789A, “Method for treating abnormal cell proliferation in the brain” (Rhone-Poulenc Rorer S.A., priority 1998, dated 2000).

This series is described as follows: Plasma kinetics of Compound A after i.v. injection in mice (HPLC). It counts as in vivo, C3H/HeN female mice. As to conditions: for Cmax at 2 min: read-out: observed maximum plasma concentration. As to the method:
Mammary C/16 adenocarcinomas were implanted in C3H/HeN female mice. At least 7 days later, 4α,10β-diacetoxy-2α-benzoyloxy-5β,20-epoxy-1β-hydroxy-7β,8β-methylene-9-oxo-19-nor-11-taxen-13α-yl (2R,3S)-3-tert-butoxycarbonylamino-2-hydroxy-3-phenylpropionate ("Compound A") was administered to groups of female mice at doses of 9.5, 15.4, 24.8, 40 or 60.5 mg/kg by intravenous injection under 0.4 or 0.5 ml/injection over 15 seconds. The body weight and date of implantation were recorded for each mouse. Blood and tissue samples were taken 2, 5, 15, 30 and 45 minutes and 1, 4, 14, 24 and 48 hours, after administration. The plasma was separated from the blood samples at 4° C. and frozen immediately. The tissue and tumors were weighed and frozen immediately (-20° C.).
The plasma and tissue samples were then analyzed for the concentration of Compound A. The plasma was assayed by high pressure liquid chromatography with spectrophotometric detection. For the tissue, liver, heart, kidney, lung, spleen and tumor tissue, samples were assayed by a first method, while a second method was used for the brain tissue analyzed. In the first method, 0.2 g of tissue was combined with 2 ml of sodium phosphate buffer 0.1 M (pH:7) and homogenized. The homogenate was centrifuged and 0.5 ml of supernatant was injected into the chromatographic column. In the second method, 10 μl of standard solution was combined with 0.2 g of brain tissue. 2 ml of methanol/5% perchloric acid (50/50) were added and the mixture was homogenized. The homogenate was centrifuged and 100 μl of supernatant was injected into the chromatographic column.

Molecules are shown by their SMILES. Like-named read-outs stand apart in the source and are kept apart here.

What is called AUC(0-t) is the area under the concentration-time curve up to a stated or last time point. Read a low AUC(0-t) as less exposure. For the compound `CC(=O)O[C@H]1C(=O)[C@]23C[C@H]2C[C@H]2OC[C@@]2(OC(C)=O)[C@H]3[C@H](OC(=O)c2ccccc2)[C@]2(O)C[C@H](OC(=O)[C@H](O)[C@@H](NC(=O)OC(C)(C)C)c3ccccc3)C(C)=C1C2(C)C` [Compound A, 4α,10β-diacetoxy-2α-benzoyloxy-5β,20-epoxy-1β-hydroxy-7β,8β-methylene-9-oxo-19-nor-11-taxen-13α-yl (2R,3S)-3-tert-butoxycarbonylamino-2-hydroxy-3-phenylpropionate], the “kinetics in plasma and tumor tissue, linearity” value (9.5 to 60.5 mg/kg i.v.) is “linear over the range studied”. The “maximum plasma concentrations, dose linearity” value (9.5 to 60.5 mg/kg i.v., 2 minutes) is on record as “linear with respect to dose”. Further, the Cmax at 2 min runs as follows: (mouse, plasma, iv, 9.5 mg/kg i.v., 2 minutes) 14000 ± 1000 ng/mL; (mouse, plasma, iv, 15.4 mg/kg i.v., 2 minutes) 21000 ± 2000 ng/mL; (mouse, plasma, iv, 24.8 mg/kg i.v., 2 minutes) 35000 ± 2000 ng/mL; (mouse, plasma, iv, 40 mg/kg i.v., 2 minutes) 51000 ± 1000 ng/mL; (mouse, plasma, iv, 60.5 mg/kg i.v., 2 minutes) 133000 ± 30000 ng/mL. The same compound returned an AUC(0-t) at 4 h (mouse, plasma, iv, dose = 40 mg/kg) of 35000 ng·h/mL. For the same compound, the AUC(0-inf) (mouse, plasma, iv, dose = 40 mg/kg, read-out: AUC 0 to Infinity, Plasma) is 58600 ng·h/mL. Where the note is “mouse, plasma, iv, dose = 40 mg/kg, read-out: t 1/2, Plasma (converted)”, the half-life was 4.4 h.
